{"source": "patent EP4810038A1", "about": "“METHOD FOR TREATING ALK-POSITIVE OR ROS1-POSITIVE NON-SMALL CELL LUNG CANCER” (Shenzhen TargetRx Co., Ltd., priority 2023, dated 2025)", "key": {"[1]": {"system": "Ba/F3 (SLC34A2-ROS1 G2032R) cell line", "assay": "Anti-tumor effect in subcutaneous transplanted Ba/F3 (SLC34A2-ROS1 G2032R) model", "type": "in vivo, NOD-SCID mice", "conditions": "for average tumor volume: 21st day after administration", "text": "Housing environment: SPF grade.\nEnvironmental conditions of the housing room of the laboratory animals: All the laboratory animals were housed in individually ventilated cages with constant temperature and constant humidity. […] The animals were continuously provided with cobalt-60 irradiated complete pelleted mouse feed with unlimited free access. The animals drank tap water (used after being autoclaved), which was provided continuously from water bottles, allowing for free access. The cages for raising the mice were polysulfone mice cages, which were autoclaved before use, and measured 325 mm × 210 mm × 180 mm. The bedding was autoclaved corn cobs. Each cage contained 5 animals. The cage cards were marked with the IACUC approval number, experiment number, start time of the experiment, project leader, experimenters, source of the animals, group, and animal number. The laboratory animals were marked with ear tags or ear labels.\nThe Ba/F3 (SLC34A2-ROS1 G2032R) cells in the exponential growth phase were collected, resuspended in PBS to a suitable concentration, and then subcutaneously inoculated into nude mice for tumor formation.\nAssay method: Female NOD/SCID mice were subcutaneously inoculated with 2×10^6 Ba/F3 (SLC34A2-ROS1 G2032R) cells on the right side to establish a subcutaneous tumor transplantation model. […] The mice were administered orally via gavage once daily. The efficacy was evaluated based on the relative tumor growth inhibition rate (TGI), and the safety was evaluated based on the changes in the body weight and mortality of the animals.\nAll the procedures, including drug administration, tumor measurement, weight measurement, etc., were performed in a biosafety cabinet or on a clean bench.\nThe relative tumor growth rate (T/C%) was the percentage value of the relative tumor volume between a treatment group and the control group at a certain time point, or the percentage value of the tumor weight between a treatment group and the control group. The calculation formula was: T/C% = TRTV / CRTV × 100% (TRTV: the average RTV of the treatment group; CRTV: the average RTV of the solvent control group; RTV = Vt / V0, wherein V0 is the tumor volume of the animal at the time of grouping, and Vt is the tumor volume of the animal after treatment); or T/C% = TTW / CTW × 100% (TTW: the average tumor weight at the end of the assay in the treatment group; CTW: the average tumor weight at the end of the assay in the solvent control group).\nStatistical analysis: To compare the tumor volume on a given day across the different treatment groups, we first used the Bartlett's test to verify the assumption of homogeneity of variance among all the groups. When the p-value of the Bartlett's test was not less than 0.05, one-way ANOVA was used to test whether the means of all the groups were equal. If the p-value of the one-way ANOVA was less than 0.05, we would use the Tukey's HSD test for the pairwise comparisons between all the groups, or use the Dunnett's test for a pairwise comparison between each treatment group and the control group. When the p-value of the Bartlett's test was less than 0.05, the Kruskal-Wallis test was used to test whether the medians of all the groups were equal. […]"}, "[2]": {"assay": "Phase I clinical trial: pharmacokinetics after single and multiple oral administrations", "type": "in vivo, human", "conditions": "for AR / Cmax / AUC / AUC(0-inf) / AUC(0-t) / half-life: GM (%CV); for Cmax / Tmax / AUC / AUC(0-inf) / AUC(0-t) / half-life: human, plasma, oral; for Tmax: Median (min-max); for AUC: read-out: AUC0-τ", "from_the_text": "The PK parameters for single-dose administration mainly include peak concentration (Cmax), time to peak concentration (Tmax), half-life (T1/2), systemic clearance (CL), volume of distribution (Vd), AUC0-t, and AUC0-∞. The PK parameters for multiple-dose administration mainly include the area under the steady-state plasma concentration-time curve (AUCss), steady-state peak plasma concentration (Cmax, ss), steady-state trough plasma concentration (Cmin, ss), and steady-state time to peak plasma concentration (Tmax, ss).\nApproximately eight dose groups in total were set in the dose escalation phase, which were 5 (the starting dose), 10, 20, 40, 60, 80, 100, and 125 mg, respectively. Subjects in all the dose groups received a single dose on day 1 (D1), and the blood samples were collected for pharmacokinetic (PK) assay and tolerability observation. If no grade 2 or a higher-level adverse event related to the investigational drug occurred during the single-dose period (5 to 7 days) (if such events occurred, dose adjustments would be made based on the toxicity according to the protocol), the subject entered the multiple-dose period (i.e., treatment period) 5 to 7 days later (7 days after the first administration in the first dose group (i.e., starting the multiple-dose treatment on day 8), and the intervals for the subsequent dose groups were determined based on the obtained tolerability and PK data). After entering the multiple-dose period, the subjects in the first dose group were initially administered with the drug once daily (QD) (if the PK data for the single-dose period had been obtained, the administration frequency for the multiple-dose period could be determined based on the PK data). The administration frequency for the subjects in the subsequent dose groups after entering the multiple-dose period was determined based on the obtained PK and tolerability data. In this trial, the administration frequency for all the subjects could be adjusted throughout the trial based on the continuously acquired safety and PK data. The four lower dose groups (5 mg, 10 mg, 20 mg and 40 mg) used an accelerated titration design, with one subject enrolled in each dose group. If any grade 2 or a higher-level adverse event related to the investigational drug occurred, the \"3+3\" dose escalation method would be switched to. The 60 mg dose group and the subsequent dose groups followed a \"3+3\" dose escalation method, and the MTD was determined. After the evaluation of the 8th dose group, if the researcher and the sponsor agreed that a higher dose group might have better efficacy and manageable safety, then a higher dose could be explored (e.g., the 9th dose group and the 10th dose group, at 150 mg and 180 mg, respectively). During the dose escalation, if a dose group was confirmed to have a preliminary antitumor effect and manageable safety (e.g., no DLT occurred in 3 subjects or only 1 out of 6 subjects experienced DLT), the dose level could be expanded after a discussion and confirmation by the researcher and the sponsor.\nAll the subjects in the dose escalation phase and dose expansion phase of this research needed to undergo intensive blood collection for PK study of the compound A, and all the subjects needed to undergo a population PK study of the compound A."}, "[3]": {"conditions": "Multiple administrations, 40 mg"}, "[4]": {"conditions": "Multiple administrations, 60 mg"}, "[5]": {"conditions": "Multiple administrations, 80 mg"}, "[6]": {"conditions": "Multiple administrations, 100 mg"}, "[7]": {"conditions": "Multiple administrations, 125 mg"}}, "note": "Read-outs that look alike come from different tables or passages of the source.", "data": [{"smiles": "[2H]C([2H])([2H])n1nc2c(c1C#N)-c1cnc(N)c(c1)O[C@H](C)c1cc(F)ccc1C(=O)N(C)C2", "note": "[compound A, (10R)-7-amino-12-fluoro-2-(methyl-d3)-10,16-dimethyl-15-oxo-10,15,16,17-tetrahydro-2H-8,4-(metheno)pyrazolo[4,3-h][2,5,11]benzoxadiazacyclotetradecine-3-carbonitrile]", "values": [{"measurement": "average tumor volume", "setting": "[1]; 1.5 mg/kg p.o. once daily", "value": 1334.38, "unit": "mm^3"}, {"measurement": "average tumor volume", "setting": "[1]; 5 mg/kg p.o. once daily", "value": 305.46, "unit": "mm^3"}, {"measurement": "average tumor volume", "setting": "[1]; 15 mg/kg p.o. once daily", "value": 0, "unit": "mm^3"}, {"measurement": "tumor-bearing mice with tumor volume reduced to 0", "setting": "[1]; 15 mg/kg, end of the assay", "value": "10/10"}, {"measurement": "AR", "setting": "[2]; [3]", "value": "1.044(25 .1) [3]"}, {"measurement": "AR", "setting": "[2]; [4]", "value": "0.913(44.1 ) [3]"}, {"measurement": "AR", "setting": "[2]; [5]", "value": "1.256(45.9) [4]"}, {"measurement": "AR", "setting": "[2]; [6]", "value": "0.732(6 6.4) [3]"}, {"measurement": "AR", "setting": "[2]; [7]", "value": "0.606(36. 1) [3]"}, {"measurement": "Cmax", "setting": "[2]; 40 mg, Multiple administrations, 40 mg, read-out: Cmax, SS", "value": 0.387, "unit": "µg/mL"}, {"measurement": "Tmax", "setting": "[2]; 40 mg, Multiple administrations", "value": 1, "unit": "h"}, {"measurement": "Cmax", "setting": "[2]; 40 mg, Single administration, 40 mg, read-out: Cmax", "value": 0.392, "unit": "µg/mL"}, {"measurement": "Tmax", "setting": "[2]; 40 mg, Single administration", "value": 0.98, "unit": "h"}, {"measurement": "Cmax", "setting": "[2]; 60 mg, Multiple administrations, 60 mg, read-out: Cmax, SS", "value": 0.644, "unit": "µg/mL"}, {"measurement": "Tmax", "setting": "[2]; 60 mg, Multiple administrations", "value": 0.533, "unit": "h"}, {"measurement": "Cmax", "setting": "[2]; 60 mg, Single administration, 60 mg, read-out: Cmax", "value": 0.875, "unit": "µg/mL"}, {"measurement": "Tmax", "setting": "[2]; 60 mg, Single administration", "value": 0.5, "unit": "h"}, {"measurement": "Cmax", "setting": "[2]; 80 mg, Multiple administrations, 80 mg, read-out: Cmax, SS", "value": 0.589, "unit": "µg/mL"}, {"measurement": "Tmax", "setting": "[2]; 80 mg, Multiple administrations", "value": 1.56, "unit": "h"}, {"measurement": "Cmax", "setting": "[2]; 80 mg, Single administration, 80 mg, read-out: Cmax", "value": 0.524, "unit": "µg/mL"}, {"measurement": "Tmax", "setting": "[2]; 80 mg, Single administration", "value": 0.7, "unit": "h"}, {"measurement": "Cmax", "setting": "[2]; 100 mg, Multiple administrations, 100 mg, read-out: Cmax, SS", "value": 0.798, "unit": "µg/mL"}, {"measurement": "Tmax", "setting": "[2]; 100 mg, Multiple administrations", "value": 1.97, "unit": "h"}, {"measurement": "Cmax", "setting": "[2]; 100 mg, Single administration, 100 mg, read-out: Cmax", "value": 0.774, "unit": "µg/mL"}, {"measurement": "Tmax", "setting": "[2]; 100 mg, Single administration", "value": 1.02, "unit": "h"}, {"measurement": "Cmax", "setting": "[2]; 125 mg, Multiple administrations, 125 mg, read-out: Cmax, SS", "value": 0.987, "unit": "µg/mL"}, {"measurement": "Tmax", "setting": "[2]; 125 mg, Multiple administrations", "value": 0.5, "unit": "h"}, {"measurement": "Cmax", "setting": "[2]; 125 mg, Single administration, 125 mg, read-out: Cmax", "value": 1.26, "unit": "µg/mL"}, {"measurement": "Tmax", "setting": "[2]; 125 mg, Single administration", "value": 1.02, "unit": "h"}, {"measurement": "AUC", "setting": "[2]; [3]", "value": 3.88, "unit": "µg·h/mL"}, {"measurement": "AUC", "setting": "[2]; [4]", "value": 5.44, "unit": "µg·h/mL"}, {"measurement": "AUC", "setting": "[2]; [5]", "value": 5.5, "unit": "µg·h/mL"}, {"measurement": "AUC", "setting": "[2]; [6]", "value": 7.02, "unit": "µg·h/mL"}, {"measurement": "AUC", "setting": "[2]; [7]", "value": 7.7, "unit": "µg·h/mL"}, {"measurement": "AUC(0-inf)", "setting": "[2]; Single administration, 40 mg", "value": 4.71, "unit": "µg·h/mL"}, {"measurement": "AUC(0-t)", "setting": "[2]; Single administration, 40 mg", "value": 4.44, "unit": "µg·h/mL"}, {"measurement": "half-life", "setting": "[2]; Single administration, 40 mg", "value": 27.8, "unit": "h"}, {"measurement": "AUC(0-inf)", "setting": "[2]; Single administration, 60 mg", "value": 12.2, "unit": "µg·h/mL"}, {"measurement": "AUC(0-t)", "setting": "[2]; Single administration, 60 mg", "value": 11.3, "unit": "µg·h/mL"}, {"measurement": "half-life", "setting": "[2]; Single administration, 60 mg", "value": 33.6, "unit": "h"}, {"measurement": "AUC(0-inf)", "setting": "[2]; Single administration, 80 mg", "value": 10.1, "unit": "µg·h/mL"}, {"measurement": "AUC(0-t)", "setting": "[2]; Single administration, 80 mg", "value": 9.13, "unit": "µg·h/mL"}, {"measurement": "half-life", "setting": "[2]; Single administration, 80 mg", "value": 34.2, "unit": "h"}, {"measurement": "AUC(0-inf)", "setting": "[2]; Single administration, 100 mg", "value": 14.6, "unit": "µg·h/mL"}, {"measurement": "AUC(0-t)", "setting": "[2]; Single administration, 100 mg", "value": 13.8, "unit": "µg·h/mL"}, {"measurement": "half-life", "setting": "[2]; Single administration, 100 mg", "value": 30.5, "unit": "h"}, {"measurement": "AUC(0-inf)", "setting": "[2]; Single administration, 125 mg", "value": 18.7, "unit": "µg·h/mL"}, {"measurement": "AUC(0-t)", "setting": "[2]; Single administration, 125 mg", "value": 17.8, "unit": "µg·h/mL"}, {"measurement": "half-life", "setting": "[2]; Single administration, 125 mg", "value": 29.2, "unit": "h"}]}]}
